Experimental data: patent US20240383898A1, “PYRIDO RING COMPOUND, PREPARATION METHOD THEREFOR, INTERMEDIATE, COMPOSITION, AND APPLICATION” (YIYOU BIOTECH (SHANGHAI) CO., LTD, priority 2021, published 2024)

Key:
JAK1 = target: T1, JAK1 (Homo sapiens, UniProt P23458); assay: In vitro activity test of JAK1 kinase (Caliper EZ Reader conversion assay); type: biochemical; details: enzyme activity, 10 concentrations from 1000 nM, 3-fold dilution
T1 construct: purchased Carna 08-114
Procedure, shortened: (§1)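 JAK1 or JAK2 pre-incubated with compound (top 1000 nM, 3-fold, 10 points, duplicate) for 10 min at room temperature, then ATP plus substrate added. Substrate conversion read by mobility-shift on Caliper EZ Reader after stop solution. Inhibition normalized to no-enzyme and DMSO controls; IC50 from variable-slope four-parameter fit.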

JAK2 = target: T2, JAK2 (Homo sapiens, UniProt O60674); assay: In vitro activity test of JAK2 kinase (Caliper EZ Reader conversion assay); type: biochemical; details: enzyme activity, 10 concentrations from 1000 nM, 3-fold dilution
T2 construct: purchased Carna 08-045
T2 sequence (O60674 whole entry, species assumed): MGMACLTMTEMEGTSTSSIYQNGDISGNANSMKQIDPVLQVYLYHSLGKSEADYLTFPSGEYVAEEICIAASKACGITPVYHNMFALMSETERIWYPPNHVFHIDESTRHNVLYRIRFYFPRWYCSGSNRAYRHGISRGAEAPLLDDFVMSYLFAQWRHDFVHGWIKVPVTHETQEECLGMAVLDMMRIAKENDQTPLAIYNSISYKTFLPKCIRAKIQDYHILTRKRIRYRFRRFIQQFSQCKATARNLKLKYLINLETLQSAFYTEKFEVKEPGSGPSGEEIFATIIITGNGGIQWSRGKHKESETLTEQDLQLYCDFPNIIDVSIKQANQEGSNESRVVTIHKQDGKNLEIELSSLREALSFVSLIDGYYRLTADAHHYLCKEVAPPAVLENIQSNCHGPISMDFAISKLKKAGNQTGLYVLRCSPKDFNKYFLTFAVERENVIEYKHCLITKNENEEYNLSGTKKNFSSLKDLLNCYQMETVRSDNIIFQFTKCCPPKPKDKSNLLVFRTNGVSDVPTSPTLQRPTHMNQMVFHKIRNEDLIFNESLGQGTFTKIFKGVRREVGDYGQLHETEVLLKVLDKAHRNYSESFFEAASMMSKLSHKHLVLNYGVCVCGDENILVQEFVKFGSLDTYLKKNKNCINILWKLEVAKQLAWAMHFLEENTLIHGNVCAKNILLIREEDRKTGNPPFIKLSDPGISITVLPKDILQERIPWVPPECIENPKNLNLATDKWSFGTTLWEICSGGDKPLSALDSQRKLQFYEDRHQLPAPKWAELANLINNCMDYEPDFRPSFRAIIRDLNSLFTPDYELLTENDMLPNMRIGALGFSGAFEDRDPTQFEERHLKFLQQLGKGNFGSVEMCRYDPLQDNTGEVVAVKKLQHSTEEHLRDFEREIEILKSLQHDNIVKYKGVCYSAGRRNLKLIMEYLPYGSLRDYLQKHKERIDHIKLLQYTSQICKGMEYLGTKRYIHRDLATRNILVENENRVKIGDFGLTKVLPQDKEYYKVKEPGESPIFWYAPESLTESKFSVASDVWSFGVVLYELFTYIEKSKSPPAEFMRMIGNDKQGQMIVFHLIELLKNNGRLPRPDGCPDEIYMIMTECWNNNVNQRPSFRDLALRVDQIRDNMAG
Procedure, shortened: as §1

T1 sequence (P23458 whole entry, species assumed): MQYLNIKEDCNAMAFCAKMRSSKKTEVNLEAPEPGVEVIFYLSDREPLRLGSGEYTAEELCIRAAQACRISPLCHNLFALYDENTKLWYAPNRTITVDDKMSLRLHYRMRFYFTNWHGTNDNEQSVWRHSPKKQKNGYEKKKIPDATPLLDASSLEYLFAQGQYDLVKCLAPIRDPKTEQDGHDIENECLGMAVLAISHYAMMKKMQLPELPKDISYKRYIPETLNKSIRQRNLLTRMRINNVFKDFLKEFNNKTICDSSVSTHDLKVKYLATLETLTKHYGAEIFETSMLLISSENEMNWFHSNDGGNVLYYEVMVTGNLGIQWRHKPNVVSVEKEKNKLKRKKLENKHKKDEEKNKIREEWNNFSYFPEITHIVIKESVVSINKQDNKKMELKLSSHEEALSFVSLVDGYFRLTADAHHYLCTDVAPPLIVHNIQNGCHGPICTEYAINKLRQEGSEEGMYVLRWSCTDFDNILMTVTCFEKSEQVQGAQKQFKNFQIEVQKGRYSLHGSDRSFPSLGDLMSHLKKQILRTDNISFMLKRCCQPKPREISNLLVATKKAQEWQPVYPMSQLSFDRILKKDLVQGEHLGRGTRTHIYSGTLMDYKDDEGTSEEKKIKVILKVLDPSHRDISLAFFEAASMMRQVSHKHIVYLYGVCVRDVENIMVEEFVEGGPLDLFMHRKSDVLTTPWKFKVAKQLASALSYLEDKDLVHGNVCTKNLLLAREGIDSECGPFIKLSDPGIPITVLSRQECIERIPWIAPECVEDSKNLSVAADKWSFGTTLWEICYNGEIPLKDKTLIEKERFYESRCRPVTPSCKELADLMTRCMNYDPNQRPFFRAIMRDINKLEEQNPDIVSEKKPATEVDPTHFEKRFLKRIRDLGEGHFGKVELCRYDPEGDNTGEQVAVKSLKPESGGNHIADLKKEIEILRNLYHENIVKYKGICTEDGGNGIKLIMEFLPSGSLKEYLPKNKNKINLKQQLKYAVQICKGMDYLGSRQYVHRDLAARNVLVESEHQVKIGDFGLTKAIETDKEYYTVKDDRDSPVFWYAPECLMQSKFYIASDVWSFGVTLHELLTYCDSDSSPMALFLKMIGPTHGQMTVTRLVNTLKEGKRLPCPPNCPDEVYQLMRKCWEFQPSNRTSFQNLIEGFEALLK

Row | IC50 (JAK1) [nM] | IC50 (JAK2) [nM] | SMILES
1 | 10 to 100 | 100 to 1000 | CCCCS(=O)(=O)N1CCC(n2c([C@@H](C)O)nc3cnc4[nH]ccc4c32)C1 (stereo partly drawn) [LXS06, (1R)-1-(1-(1-(butylsulfonyl)pyrrolidin-3-yl)-1,6-dihydroimidazo[4,5-d]pyrrolo[2,3-b]pyridin-2-yl)ethan-1-ol]
2 | < 10 | 100 to 1000 | C[C@@H](O)c1nc2cnc3[nH]ccc3c2n1[C@H]1CCN(CCC(F)(F)F)C1 [LXS96, (R)-1-(1-((S)-1-(3,3,3-trifluoropropyl)pyrrolidin-3-yl)imidazo[4,5-d]pyrrolo[2,3-b]pyridin-2-yl)ethanol]
3 | 10 to 100 | 10 to 100 | C=CC(=O)N1CCC(n2c(-c3ccc(O)cc3O)nc3cnc4[nH]ccc4c32)C1 (stereo not shown) [LXS33, 1-(3-(2-(2,4-Dihydroxyphenyl)imidazo[4,5-d]pyrrolo[2,3-b]pyridin-1(6H)-yl)pyrrolidin-1-yl)prop-2-en-1-one]
4 | 10 to 100 | < 10 | CCCS(=O)(=O)N1CCC(n2c(-c3cccc(O)c3)nc3cnc4[nH]ccc4c32)C1 (stereo not shown) [LXS32, 3-(1-(1-(propylsulfonyl)pyrrolidin-3-yl)-1,6-dihydroimidazo[4,5-d]pyrrolo[2,3-b]pyridin-2-yl)phenol]
5 | 100 to 1000 | 10 to 100 | N#CCCCn1cc(-n2c(C3CCC3)nc3cnc4[nH]ccc4c32)cn1 [LXS107, 4-(4-(2-cyclobutylimidazo[4,5-d]pyrrolo[2,3-b]pyridin-1(6H)-yl)-1H-pyrazol-1-yl)butanenitrile]
